Results as given in patent publication US20130302311A1, “EMERGENCY INTERVENTIONS OF ACTIVE CHARCOAL WITH DABIGATRAN ETEXILATE OVERDOSING” (BOEHRINGER INGELHEIM INTERNATIONAL GMBH, priority 2009, published 2013).

Key:
[1] = Binding of dabigatran etexilate to activated charcoal in water (simulated stomach fluid), HPLC; type: physicochemical; conditions: for dabigatran etexilate level recovered by HPLC: untreated suspension (no charcoal), filtered
Method: In these experiments, binding of dabigatran etexilate to active charcoal in water simulates recent ingestion (2-5, preferably 2-3 hrs) of large amounts of dabigatran etexilate in the stomach fluid. Binding of dabigatran to active charcoal in plasma simulates situations where dabigatran was absorbed after ingestion and present in high concentrations in plasma. The contents of 5, 10 and 20 capsules (150 mg/capsule) of dabigatran etexilate were suspended in 100 ml water (approx. stomach volume, pH 2.7, 2.5 and 2.4, respectively). Each suspension was divided in half. To one portion a freshly prepared activated charcoal suspension (125 mg/ml, Ultracarbon®, Merck) was added. Both suspensions (with and without charcoal) were filtered and dabigatran etexilate concentrations were assessed via HPLC.

[2] = Binding of dabigatran to active charcoal in plasma, LC-MS/MS; type: physicochemical; conditions: for dabigatran plasma level (mean±SD): untreated plasma (no charcoal)
Method: In these experiments, binding of dabigatran etexilate to active charcoal in water simulates recent ingestion (2-5, preferably 2-3 hrs) of large amounts of dabigatran etexilate in the stomach fluid. Binding of dabigatran to active charcoal in plasma simulates situations where dabigatran was absorbed after ingestion and present in high concentrations in plasma. In the plasma experiments, dabigatran was added to a plasma pool at supra-therapeutic concentrations of 470 and 940 ng/ml. The sample was then split, and active charcoal was added to half at the manufacturer's specified concentration (125 mg/ml), or 1:11 dilution of this. Dabigatran plasma levels were measured by a validated LC-MS/MS method.

CCCCCCOC(=O)NC(=N)c1ccc(NCc2nc3cc(C(=O)N(CCC(=O)OCC)c4ccccn4)ccc3n2C)cc1 [dabigatran etexilate]
dabigatran etexilate peak (HPLC) in charcoal-treated suspensions ([1]; activated charcoal suspension (125 mg/ml, Ultracarbon) added, all three tested concentrations): no longer detectable
dabigatran etexilate adsorbed by the activated charcoal ([1]; activated charcoal suspension (125 mg/ml, Ultracarbon), all three tested concentrations): > 99.9%
dabigatran etexilate level recovered by HPLC ([1]; contents of 5 capsules (150 mg/capsule) in 100 ml water, pH 2.7): 8.3 mg/mL
dabigatran etexilate level recovered by HPLC ([1]; contents of 10 capsules (150 mg/capsule) in 100 ml water, pH 2.5): 15.6 mg/mL
dabigatran etexilate level recovered by HPLC ([1]; contents of 20 capsules (150 mg/capsule) in 100 ml water, pH 2.4): 29.6 mg/mL

Cn1c(CNc2ccc(C(=N)N)cc2)nc2cc(C(=O)N(CCC(=O)O)c3ccccn3)ccc21 [dabigatran]
dabigatran plasma level after addition of activated charcoal ([2]; activated charcoal at 125 mg/ml or 1:11 dilution, dabigatran added at 470 and 940 ng/ml, close to or below lower limit of quantification): < 1.01 ng/mL
dabigatran plasma level (mean±SD) ([2]; dabigatran added at 470 ng/ml): 394 ± 19.4 ng/mL
dabigatran plasma level (mean±SD) ([2]; dabigatran added at 940 ng/ml): 824 ± 39.3 ng/mL
